# Tests used:
# [1] = system: maize transcripts (corn genes on the microarray); assay: Agilent single-color global gene expression profiling of corn leaf tissue 2 h after spray treatment; assay type: in vivo, Zea maize (corn); conditions: for Regulation: Table 1: corn genes, 1-MCP alone, direction of change per probe/gene
# Description: Hybrid corn seed (one plant per pot) was planted in 1 quart pots filled with FAFARD 3B™ potting mix (Conrad Fafard, Inc., Agawam, Mass.). Corn was grown in a greenhouse with a 12 hr light cycle and watered every 24 hours or as needed to maintain stress free conditions. When the corn plants reached the V10 growth stage, the pots were arranged into a randomized complete block design with 4 plants with 3 replications per treatment. Corn plants were treated using a standard CO2 sprayer with 20 gal/acre carrier volume.
# Treatments were: • Control: Oil/Adjuvant check using 0.035% v/v the organosilicone surfactant SILWET L-77 (Helena Chemical Co., Collierville, Tenn.) • Compound 1: A17492F (MCP) 25 g active ingredient/hectare (ai/ha)+0.035% SILWET surfactant • Compound 2: COMPASS fungicide 1x+0.035% SILWET surfactant • Combination (1 and 2): 1 MCP 25 g/ha+COMPASS fungicide 1x
# (§1) Two hours after the spray application, upper leaves that had received the spray were sampled. For each plant, five, 2 inch pieces of leaves were taken, cut into small pieces and combined into a 50 ml polypropylene tube. Samples were immediately frozen on dry ice and sent on dry ice overnight to the laboratory for processing.
# A single-color Agilent global gene expression profiling design was used to define differentially expressed genes for treated in reference to untreated maize leaf tissues. Three technical array replicates (Agilent Technologies Inc., Santa Clara, Calif.) were hybridized to compare different transcript abundance between leaf tissues treated with the COMPASS fungicide and/or 1-MCP in reference to untreated leaf tissues.
# A Dow AgroSciences custom generated 60-mer comprehensive transcriptome-wide Zea maize oligonucleotide array was used to carry out microarray hybridizations. This array represents more than 58,000 different maize transcripts (Agilent Technologies Inc., Santa Clara, Calif.) obtained from public data sources. Microarray chips were printed using an Agilent format 2×105K, including 10 copies of 100 probes, 2 copies of 44,196 probes 1 copy of 14,355 probes in addition to 1,325 Agilent spike-in controls. The 60-mer unique and specific oligonucleotides were synthesized in-situ using the Sure-Print technology from the manufacturer.
# (§2) Samples of 30-50 mg of frozen leaf tissues were resuspended in 450 μL of extraction buffer RLT from the RNeasy™ Kit for RNA extraction (Qiagen, Valencia, Calif.). Tissues were then ground to a fine powder by adding one 3 mm grinding bead to each frozen sample and grinding for 3 minutes using a GenoGrinder instrument at a rate of 300, 1×. Total RNA was purified following the manufacturer's instructions. Purified total RNA was then quantified and quality controlled using a NanoDrop™ spectrophotometer and visualized by standard 1% Agarose gel electrophoresis.
# For labeling, a total of 1.0 μg of purified RNA from treated and untreated tissues was reverse transcribed, amplified and labeled with Cy3-CTP following the Agilent (Santa Clara, Calif.) one-color microarray-based gene expression QuickAmp™ labeling protocol. Since Dow AgroSciences-generated Zea maize AGILENT™ microarrays for gene expression (P/N G4503A, Design ID 022232) contain internal spike-in controls a one-color RNA spike-in kit (Agilent, Santa Clara, Calif.) was also labeled according to manufacturer's instructions. Samples were reverse transcribed using MMLV Reverse Transcriptase and amplified using a T7 RNA Polymerase. After amplification cRNA was purified using Qiagen's RNeasy mini spin columns and quantified using a NanoDrop spectrophotometer. Specific activity for Cy3 was determined by the following formula: […]
# Oligo gene expression arrays were hybridized using the Agilent Technologies (Santa Clara, Calif.) Gene Expression Hybridization kit, Wash Buffer kit, Stabilization and Drying Solution following the manufacturer's instructions. Hybridizations were carried out on a fully automated TECAN HS4800 PRO™ (TECAN U.S., Research Triangle Park, N.C.). […]
# [2] = system: Arabidopsis genes on the microarray; assay: Agilent single-color global gene expression profiling of Arabidopsis leaf tissue 2 h after spray treatment; assay type: in vivo, Arabidopsis thaliana (variety Columbia); conditions: for Regulation^a: direction per probe/gene
# Description: Thirteen Arabidopsis seeds (variety Columbia) were planted in 6 inch pots filled with sandy clay medium. After emergence, pots were thinned to 10 plants per pot. Plants were grown in a greenhouse with a 12 hr light cycle and watered every 24 hours or as needed to maintain stress free conditions. When the Arabidopsis plants reached the vegetative (>BBCH 11<BBCH 30) stage (approx. 2-3 wks from planting), the pots were arranged into a randomized complete block design with 10 plants with 3 replications per treatment. The plants were treated using a standard CO2 sprayer with 20 gal/A carrier volume.
# Control: Oil/Adjuvant check (0.035% v/v SILWET adjuvant L-77)
# Compound 1: A17492F (MCP) 25 g ai /ha+0.035% SILWET adjuvant
# Compound 2: COMPASS fungicide 1x+0.035% SILWET adjuvant
# Combination: 1 MCP 25 g/ha+COMPASS fungicide 1x
# as §1, with “application,” for “application, upper”, “treatment, two” for “plant, five, 2 inch pieces of”, “taken from each of the 10 plants” for “taken, cut into small pieces”
# A single-color Agilent global gene expression profiling design was used to define differentially expressed genes for treated in reference to untreated Arabidopsis leaf tissues. Three technical array replicates (Agilent Technologies Inc., Santa Clara, Calif.) were hybridized to compare different transcript abundance between leaf tissues treated with Strobilurin and/or 1-MCP in reference to untreated leaf tissues. Arabidopsis slides, Product #G2519F, Design ID 021169 were obtained from Agilent Technologies.
# as §2, with “RNeasy” for “RNeasy™”, “GenoGrinder” for “GenoGrinder instrument”, “NanoDrop” for “NanoDrop™”
# For labeling, a total of 1.0 μg of purified RNA from treated and untreated tissues was reverse transcribed, amplified and labeled with Cy3-CTP following the Agilent (Santa Clara, Calif.) one-color microarray-based gene expression QuickAmp labeling protocol. Since Agilent Arabidopsis microarrays for gene expression (Product #G2519F, Design ID 021169) contain internal spike-in controls a one-color RNA spike-in kit (Agilent, Santa Clara, Calif.) was also labeled according to manufacturer's instructions. Samples were reverse transcribed using MMLV Reverse Transcriptase and amplified using a T7 RNA Polymerase. After amplification cRNA was purified using Qiagen's RNeasy mini spin columns and quantified using a NanoDrop spectrophotometer. Specific activity for Cy3 was determined by the following formula: (Concentration of Cy3)/(Concentration of cRNA)*1000=pmol of Cy3 per μg of cRNA. Samples for hybridization were normalized to 825 ng with a specific activity of >8.0 pmol of Cy3 per μg of cRNA.
# Oligo gene expression arrays were hybridized using the Agilent Technologies (Santa Clara, Calif.) Gene Expression Hybridization kit, Wash Buffer kit, Stabilization and Drying Solution following the manufacturer's instructions. Hybridizations were carried out on a fully automated TECAN HS4800 PRO (TECAN U.S., Research Triangle Park, N.C.) hybridization instrument. The hybridization mixture was injected at 65° C. and incubated with agitation for 17 hrs after following a slide pre-hybridization step at 65° C. for 30 seconds. Slides were then washed at 37° C. for 1 minute using the Agilent GE Wash #1 followed by a second wash at 30° C. with Agilent GE Wash #2 for 1 minute and a final drying step using Nitrogen gas for 2 minutes and 30 seconds at 30° C. […]
# [3] = corn leaves, 2 h after spray, ≧2 fold change
# [4] = Arabidopsis leaves, 2 h after spray, ≧5 fold change
structure (smiles),measurement,setting,value
"CC1=CC1 [Compound 1-MCP, 1-methylcyclopropene]",Regulation,[1]; probe ZmOL3000012,up
same,Regulation,[1]; probe ZmOL3007441,down
same,Regulation,[1]; probe ZmOL3020067,Down
same,Regulation,[1]; probe ZmOL3050321_2,Up
same,expression of carbonic anhydrase,[1]; corn,decreased
same,overall effect of treatment on gene expression,[1]; corn,reduction in stress-related gene expression
same,genes differentially expressed on the microarray vs untreated,[1]; [3],934 genes
same,subset of genes changed uniquely in response to this treatment,[1]; [3],362 genes
same,genes involved in translation whose expression changed that were induced,"[1]; corn, genes unique to the treatment",9 out of 10
same,overall effect of treatment on gene expression,[2]; Arabidopsis,reduction in stress-related gene expression
same,genes differentially expressed on the microarray vs untreated,[2]; [4],411 genes
same,subset of genes changed uniquely in response to this treatment,[2]; [4],202 genes
same,common genes following treatment with either 1-MCP or COMPASS alone,"[2]; Arabidopsis, ≧5 fold change",165 genes
same,Regulation^a,"[2]; Table 3: Arabidopsis genes, 1-MCP alone, probe A_84_P20410",up
same,Regulation^a,"[2]; Table 3: Arabidopsis genes, 1-MCP alone, probe A_84_P786760",down
same,Regulation^a,"[2]; Table 5: common genes, first column pair (a), probe A_84_P13916",down
same,Regulation^a,"[2]; Table 5: common genes, first column pair (a), probe A_84_P507728",up

# Source: US20130071853A1, “METHODS FOR IDENTIFYING COMPOSITIONS THAT ALTER WILDTYPE EXPRESSION OF GENES AND PROTEINS IN A PLANT CELL” (Dow Agrosciences LLC, priority 2010, published 2013)
